Experimental findings from ChEMBL document CHEMBL3046519, “Synthesis and biological evaluation of some pyrazole derivatives as anti-inflammatoryantibacterial agents” (2012) are described below.

Each structure is given as a SMILES string. Converted amounts (≈) assume the structure as drawn. The source made the active and inactive calls. No cut-off for these calls is given here.

Usually inhibition in vivo stands for the change of the read-out against control, counted positive when it falls. In general, MIC refers to the least concentration at which growth counts as inhibited. A low value points to greater potency.

In assay [1] the test system is Rattus norvegicus. Kind of assay: Anti-inflammatory activity in Rattus norvegicus Wistar albino (rat) assessed as inhibition of carrageenan-induced paw edema at 50 mg/kg, po administered for 30 min prior to carrageenan challenge measured at 1 hr relative to control. The assay is classed as functional. For orientation: In the carrageenan paw model, swelling and tenderness develop within hours.

For assay [2], the system named is Rattus norvegicus. Description: Anti-inflammatory activity in Rattus norvegicus Wistar albino (rat) assessed as inhibition of carrageenan-induced paw edema at 50 mg/kg, po administered for 30 min prior to carrageenan challenge measured at 2 hr relative to control. The assay is classed as functional.
The test system of assay [3] is Escherichia coli. Description: Antibacterial activity against Escherichia coli MTCC 1652 at 4 mg/ml after 24 hr by agar well diffusion method. The assay is classed as functional, organism-based. (In general: In agar diffusion tests the substance spreads into inoculated agar from a disc or well.)
Assay [4] has as its system Rattus norvegicus. Kind of assay: Anti-inflammatory activity in Rattus norvegicus Wistar albino (rat) assessed as inhibition of carrageenan-induced paw edema at 50 mg/kg, po administered for 30 min prior to carrageenan challenge measured at 3 hr relative to control. The assay is classed as functional.
The subject of assay [5] is Rattus norvegicus. Description: Anti-inflammatory activity in Rattus norvegicus Wistar albino (rat) assessed as inhibition of carrageenan-induced paw edema at 50 mg/kg, po administered for 30 min prior to carrageenan challenge measured at 4 hr relative to control. It is filed as functional.
The subject of assay [6] is Bacillus subtilis. Kind of assay: Antibacterial activity against Bacillus subtilis MTCC 121 at 4 mg/ml after 24 hr by agar well diffusion method. The assay is classed as functional. The conditions noted are these: MTCC 121, 24 h, read-out: DIZ.
The subject of assay [7] is Staphylococcus aureus. Kind of assay: Antibacterial activity against Staphylococcus aureus MTCC 96 at 4 mg/ml after 24 hr by agar well diffusion method. The conditions noted are these: MTCC 96, 24 h, read-out: DIZ. The assay is classed as functional.
Assay [8] relates to Staphylococcus aureus. Kind of assay: Antibacterial activity against Staphylococcus aureus MTCC 96 by NCCLS broth macrodilution method. The assay is classed as functional.
In assay [9] the test system is Bacillus subtilis. Kind of assay: Antibacterial activity against Bacillus subtilis MTCC 121 by NCCLS broth macrodilution method. The assay is classed as functional.
Assay [10] has as its system Pseudomonas aeruginosa. The settings on record: MTCC 741, 4 mg/ml.
Description: Antibacterial activity against Pseudomonas aeruginosa MTCC 741 at 4 mg/ml after 24 hr by agar well diffusion method

`NC(=S)N/N=C/c1cn(-c2ccc(S(N)(=O)=O)cc2)nc1-c1ccc(Cl)cc1`: the inhibition in vivo at 50 mg/kg is 33% in assay [1], 76% in assay [2], 77% in [4] and 71% in [5]. The “diameter of the inhibition zone (DIZ)” value in [3] was “inactive”. Also, the zone of inhibition at 4000 µg/mL in [6] came out at 13.6 mm; in assay [7], 14 mm. For the same molecule, the MIC in assay [8] and in [9] was more than 128 µg/mL throughout. The DIZ entry in assay [10] was “inactive”.
Consider `Cc1ccc(-c2csc(N/N=C/c3cn(-c4ccc(S(N)(=O)=O)cc4)nc3-c3ccccc3)n2)cc1`, for which the inhibition in vivo at 50 mg/kg in [1] came to 28%; in [2], 65%; in [4] it was 57%; in [5], 60%. The “diameter of the inhibition zone (DIZ)” value in [3] was “inactive”. Besides, the figures for the zone of inhibition at 4000 µg/mL in assay [6] and in [7] were 14.6 mm and 15 mm, respectively. Further, the minimal inhibitory concentration (MIC) in [8] and in assay [9] was more than 128 µg/mL throughout. Moreover, the DIZ entry in assay [10] is “inactive”.
Regarding `Cc1ccc(-c2csc(N/N=C/c3cn(-c4ccc(S(N)(=O)=O)cc4)nc3-c3ccc(Cl)cc3)n2)cc1`, the inhibition in vivo at 50 mg/kg in assay [1] is 5%; in assay [2], 61%; in [4], 70%; in assay [5] it was 73%. Besides, the “diameter of the inhibition zone (DIZ)” value in [3] was “inactive”. The zone of inhibition at 4000 µg/mL in assay [6] worked out at 14.6 mm; in [7] it was 15.3 mm. In addition, the minimum inhibitory concentration (MIC) in [8] and in assay [9] was more than 128 µg/mL in each case. Moreover, the DIZ entry in [10] is “inactive”.
As to `Cc1ccc(-c2csc(N/N=C/c3cn(-c4ccc(S(N)(=O)=O)cc4)nc3-c3ccc(F)cc3)n2)cc1`, the inhibition in vivo at 50 mg/kg in [1] was determined as 33%; in assay [2] it was 72%; in assay [4] it was 73%; in [5], 70%. The “diameter of the inhibition zone (DIZ)” value in assay [3] is “inactive”. Further, the zone of inhibition at 4000 µg/mL in assay [6] stood at 14.3 mm; in [7], 15.6 mm. The MIC in [8] and in [9] was more than 128 µg/mL each time. Moreover, the DIZ result in [10] was “inactive”.
Regarding `Cc1ccc(-c2csc(N/N=C/c3cn(-c4ccc(S(N)(=O)=O)cc4)nc3-c3ccc(C)cc3)n2)cc1`, the inhibition in vivo at 50 mg/kg in assay [1] is 24%; in [2] it was 72%; in assay [4], 75%; in assay [5], 61%. In addition, in assay [3], the “diameter of the inhibition zone (DIZ)” value is “inactive”. The zone of inhibition at 4000 µg/mL in assay [6] is 14 mm; in [7], 13.6 mm. In addition, the MIC in [8] and in [9] was more than 128 µg/mL in each case. Further, the DIZ result in assay [10] is “inactive”.
As to `NS(=O)(=O)c1ccc(-n2cc(/C=N/Nc3nc(-c4ccc(Cl)cc4)cs3)c(-c3ccccc3)n2)cc1`, the inhibition in vivo at 50 mg/kg in assay [1] amounted to 32%; in [2] it was 72%; in [4], 75%; in assay [5], 70%. Besides, the “diameter of the inhibition zone (DIZ)” value in assay [3] was “inactive”. Also, the results for the zone of inhibition at 4000 µg/mL in assay [6] and in assay [7] were 15.3 mm and 13.6 mm, respectively. Further, the MIC in [8] and in [9] was more than 128 µg/mL each time. Besides, the DIZ entry in [10] was “inactive”.
As for `NS(=O)(=O)c1ccc(-n2cc(/C=N/Nc3nc(-c4ccc(Cl)cc4)cs3)c(-c3ccc(Cl)cc3)n2)cc1`, the inhibition in vivo at 50 mg/kg in assay [1] is 28%; in [2] it was 67%; in assay [4] it was 73%; in [5], 58%. Further, the “diameter of the inhibition zone (DIZ)” value in assay [3] was “inactive”. Besides, the values for the zone of inhibition at 4000 µg/mL in assay [6] and in assay [7] were 15 mm and 14.6 mm, respectively. Further, the MIC in assay [8] and in assay [9] was more than 128 µg/mL each time. Moreover, in [10], the DIZ entry was “inactive”.
Turning to `COc1ccc(-c2nn(-c3ccc(S(N)(=O)=O)cc3)cc2/C=N/NC(N)=S)cc1`, the inhibition in vivo at 50 mg/kg in assay [1] is 28%; in [2], 76%; in [4], 59%; in assay [5], 71%. In [3], the “diameter of the inhibition zone (DIZ)” value is “inactive”. Besides, the zone of inhibition at 4000 µg/mL in assay [6] was determined as 15 mm; in assay [7] it was 13.6 mm. Besides, the minimal inhibitory concentration (MIC) in assay [8] and in assay [9] was more than 128 µg/mL throughout. The DIZ entry in [10] is “inactive”.
Take `COc1ccc(-c2nn(-c3ccc(S(N)(=O)=O)cc3)cc2/C=N/Nc2nc(-c3ccc(C)cc3)cs2)cc1`: the inhibition in vivo at 50 mg/kg amounted to 37% in assay [1], 65% in assay [2], 72% in [4] and 70% in assay [5]. Further, the “diameter of the inhibition zone (DIZ)” value in assay [3] is “inactive”. Further, the zone of inhibition at 4000 µg/mL in assay [6] is 17.3 mm; in [7] it was 20.6 mm. For the same molecule, the minimal inhibitory concentration (MIC) in assay [8] amounted to 64 µg/mL (≈ 118 µM); in assay [9], 128 µg/mL (≈ 235 µM). The DIZ entry in assay [10] is “inactive”.
As for `Cc1ccc(-c2nn(-c3ccc(S(N)(=O)=O)cc3)cc2/C=N/Nc2nc(-c3ccc(Cl)cc3)cs2)cc1`, the inhibition in vivo at 50 mg/kg in assay [1] was 32%; in assay [2], 60%; in [4], 60%; in assay [5] it was 57%. The “diameter of the inhibition zone (DIZ)” value in assay [3] is “inactive”. Also, the zone of inhibition at 4000 µg/mL in assay [6] came to 15.3 mm; in assay [7], 14.6 mm. The minimum inhibitory concentration (MIC) in assay [8] and in [9] was more than 128 µg/mL in each case. The DIZ entry in assay [10] was “inactive”.
With `NS(=O)(=O)c1ccc(-n2cc(/C=N/Nc3nc(-c4ccccc4)cs3)c(-c3ccccc3)n2)cc1`, the inhibition in vivo at 50 mg/kg came to 33% in assay [1], 71% in [2], 69% in assay [4] and 72% in [5]. Moreover, the “diameter of the inhibition zone (DIZ)” value in [3] was “inactive”. The zone of inhibition at 4000 µg/mL turned out to be 14.6 mm in assay [6] and 14.3 mm in assay [7]. For the same molecule, the MIC in assay [8] and in assay [9] was more than 128 µg/mL throughout. In assay [10], the DIZ result is “inactive”.
For `NS(=O)(=O)c1ccc(-n2cc(/C=N/Nc3nc(-c4ccccc4)cs3)c(-c3ccc(Cl)cc3)n2)cc1`, the inhibition in vivo at 50 mg/kg amounted to 22% in assay [1], 62% in assay [2], 57% in assay [4] and 56% in assay [5]. In [3], the “diameter of the inhibition zone (DIZ)” value is “inactive”. In addition, the values for the zone of inhibition at 4000 µg/mL in assay [6] and in assay [7] were 15.6 mm and 13.3 mm, respectively. Moreover, the MIC in assay [8] and in assay [9] was more than 128 µg/mL in each case. The DIZ entry in [10] is “inactive”.
Consider `COc1ccc(-c2nn(-c3ccc(S(N)(=O)=O)cc3)cc2/C=N/Nc2nc(-c3ccccc3)cs2)cc1`, for which the inhibition in vivo at 50 mg/kg in [1] came to 32%; in [2] it was 65%; in assay [4], 61%; in assay [5] it was 61%. Further, the “diameter of the inhibition zone (DIZ)” value in [3] is “inactive”. The figures for the zone of inhibition at 4000 µg/mL in assay [6] and in assay [7] were 15.6 mm and 15.3 mm, respectively. The MIC in assay [8] and in assay [9] was more than 128 µg/mL throughout. The DIZ result in [10] was “inactive”.
For the molecule `COc1ccc(-c2nn(-c3ccc(S(N)(=O)=O)cc3)cc2/C=N/Nc2nc(-c3ccc(Cl)cc3)cs2)cc1`, the inhibition in vivo at 50 mg/kg in assay [1] stood at 32%; in assay [2] it was 66%; in assay [4], 69%; in assay [5] it was 71%. Moreover, in [3], the “diameter of the inhibition zone (DIZ)” value was “inactive”. Further, the zone of inhibition at 4000 µg/mL is 14.3 mm in assay [6] and 13.6 mm in [7]. In addition, the MIC in [8] and in assay [9] was more than 128 µg/mL each time. For the same molecule, the DIZ entry in assay [10] is “inactive”.
On to `Cc1ccc(-c2nn(-c3ccc(S(N)(=O)=O)cc3)cc2/C=N/Nc2nc(-c3ccccc3)cs2)cc1`, for which the inhibition in vivo at 50 mg/kg was determined as 33% in assay [1], 60% in assay [2], 75% in assay [4] and 56% in assay [5]. Further, in assay [3], the “diameter of the inhibition zone (DIZ)” value is “inactive”. Moreover, the zone of inhibition at 4000 µg/mL in assay [6] was found to be 13.6 mm; in [7], 15.3 mm. For the same molecule, the MIC in assay [8] and in assay [9] was more than 128 µg/mL each time. Further, the DIZ result in assay [10] is “inactive”.
Turning to `NS(=O)(=O)c1ccc(-n2cc(/C=N/Nc3nc(-c4ccc(Cl)cc4)cs3)c(-c3ccc(F)cc3)n2)cc1`, the inhibition in vivo at 50 mg/kg in [1] is 35%; in assay [2], 29%; in [4], 73%; in [5], 75%. In addition, the “diameter of the inhibition zone (DIZ)” value in [3] is “inactive”. For the same molecule, the values for the zone of inhibition at 4000 µg/mL in [6] and in assay [7] were 13.3 mm and 14.3 mm, respectively. Further, the MIC in [8] and in assay [9] was more than 128 µg/mL throughout. The DIZ entry in assay [10] was “inactive”.
